Our source for the IC50, Activity and inhibition values is ChEMBL document CHEMBL4316624, “Analyzing the role of cannabinoids as modulators of Wnt/β-catenin signaling pathway for their use in the management of neuropathic pain” (Bioorg Med Chem Lett, 2019).

SMILES strings stand for the structures. pIC50: −log10 of the molar value. Active and inactive are the calls of the source. The calls are words filed in the database; no cut-off is given here.

As a reminder, the pIC50 is −log10 of the IC50, conventionally taken in molar units.

Data set [1] relates to HCT-116. Description: Cytotoxicity against human HCT116 cells assessed as reduction in cell viability incubated for 72 hrs by MTT assay. The class given is cell-based. The following applies: HCT-116, 72 h. For orientation: Tetrazolium dyes change colour on reduction, which living cells bring about.
The subject of data set [2] is OVCAR. Description: Cytotoxicity against human OVCAR cells assessed as reduction in cell viability incubated for 72 hrs by MTT assay. It counts as cell-based.
Data set [3] relates to A549. Description: Cytotoxicity against human A549 cells assessed as reduction in cell viability incubated for 72 hrs by MTT assay. As to conditions: A549, 72 h. It counts as cell-based.
In data set [4] the test system is MCF7. The experiment in a line: Cytotoxicity against human MCF7 cells assessed as reduction in cell viability incubated for 72 hrs by MTT assay. It counts as cell-based. As to conditions: MCF7, 72 h.
Data set [5] relates to PC-3. Description: Cytotoxicity against human PC3 cells assessed as reduction in cell viability incubated for 72 hrs by MTT assay. As to conditions: PC-3, 72 h. It counts as cell-based.
Data set [6] deals with HepG2. The experiment in a line: Cytotoxicity against human HepG2 cells assessed as reduction in cell viability incubated for 72 hrs by MTT assay. The class given is cell-based. The following applies: HepG2, 72 h.
Data set [7] deals with SH-SY5Y. The experiment in a line: Cytotoxicity against human SH-SY5Y cells assessed as reduction in cell viability incubated for 72 hrs by MTT assay. The class given is cell-based.
Data set [8] deals with HCT-116. The experiment in a line: Cytotoxicity against human HCT116 cells assessed as reduction in cell viability incubated for 24 to 72 hrs by MTT assay. It counts as cell-based.
In data set [9] the test system is OVCAR. Description: Cytotoxicity against human OVCAR cells assessed as reduction in cell viability incubated for 24 to 72 hrs by MTT assay. It counts as ADME, cell-based.
For data set [10], the system named is A549. The experiment in a line: Cytotoxicity against human A549 cells assessed as reduction in cell viability incubated for 24 to 72 hrs by MTT assay. The class given is cell-based.
In data set [11] the test system is MCF7. The experiment in a line: Cytotoxicity against human MCF7 cells assessed as reduction in cell viability incubated for 24 to 72 hrs by MTT assay. It counts as cell-based.
Data set [12] relates to PC-3. Description: Cytotoxicity against human PC3 cells assessed as reduction in cell viability incubated for 24 to 72 hrs by MTT assay. The class given is cell-based.
For data set [13], the system named is HepG2. The experiment in a line: Cytotoxicity against human HepG2 cells assessed as reduction in cell viability incubated for 24 to 72 hrs by MTT assay. It counts as cell-based.
Data set [14] deals with SH-SY5Y. Description: Cytotoxicity against human SH-SY5Y cells assessed as reduction in cell viability incubated for 24 to 72 hrs by MTT assay. The class given is cell-based.
Data set [15] concerns HepG2. The experiment in a line: Inhibition of Wnt/beta-catenin signaling pathway in human HepG2 cells assessed as reduction in TCF-dependent beta-catenin mediated transcription incubated for 24 hrs by Topflash reporter assay. It counts as cell-based. In general terms: Reporter assays use an easily measured gene product as a stand-in for the process of interest.
The subject of data set [16] is HepG2. The experiment in a line: Inhibition of Wnt/beta-catenin signaling pathway in human HepG2 cells assessed as reduction in TCF-dependent beta-catenin mediated transcription at 20 to 40 uM incubated for 24 hrs by Topflash reporter assay. It counts as cell-based.
For data set [17], the system named is HepG2. The experiment in a line: Inhibition of Wnt/beta-catenin signaling pathway in human HepG2 cells assessed as reduction in TCF-dependent beta-catenin mediated transcription at 5 to 40 uM incubated for 24 hrs by Topflash reporter assay. It counts as cell-based.

For the compound `C=C(C)[C@@H]1CC[C@H]2O[C@H]2[C@H]1c1c(O)cc(CCCCC)cc1O`, the pIC50 was 4.82 in the data set on HCT-116 [1]; 4.25 in the data set with OVCAR [2]; 4.34 in the data set on A549 [3]; 4.33 in the data set on MCF7 [4]; 4.75 in the data set on PC-3 [5]; 4.28 with HepG2 [6]. In addition, in the data set with SH-SY5Y [7], the pIC50 was 4.29. Also, the Activity entry in the data set with HCT-116 [8], in the data set with OVCAR [9], in the data set on A549 [10], in the data set with MCF7 [11], in the data set on PC-3 [12] and with HepG2 [13] was “Dose-dependent effect” each time. The Activity entry with SH-SY5Y [14] was “Dose-dependent effect”. The inhibition result in the data set with HepG2 [15] is “Dose-dependent effect”.

Regarding `CCCCCc1cc(O)c2c(c1)OC(C)(CCC=C(C)C)C=C2` (configuration not stated) [CANNABICHROMENE], the negative logarithm of the IC50 (pIC50) with HCT-116 [1] is 4.22; with OVCAR [2], 4.19; in the data set on A549 [3], 4.22; in the data set on MCF7 [4] it was 4.40; with PC-3 [5], 4.40; in the data set on HepG2 [6] it was 4.22. For the same compound, in the data set on SH-SY5Y [7], the pIC50 is 4.11. The Activity result in the data set on HCT-116 [8], in the data set on OVCAR [9], with A549 [10], with MCF7 [11], with PC-3 [12] and with HepG2 [13] was “Dose-dependent effect” in each case. In addition, the Activity result with SH-SY5Y [14] is given as “Dose-dependent effect”. For the same compound, the inhibition result in the data set on HepG2 [16] is “inactive”.

As for `C=C(C)[C@@H]1CCC(C)=C[C@H]1c1c(O)cc(CCCCC)cc1O` [CANNABIDIOL], the negative-log IC50 (pIC50) in the data set with HCT-116 [1] is 4.74; in the data set on OVCAR [2], 4.30; in the data set on A549 [3], 4.40; with MCF7 [4], 4.26; with PC-3 [5], 4.92; with HepG2 [6], 4.37. For the same compound, the pIC50 in the data set on SH-SY5Y [7] was 4.32. Also, the Activity entry in the data set on HCT-116 [8], in the data set with OVCAR [9], with A549 [10], with MCF7 [11], with PC-3 [12] and in the data set with HepG2 [13] was “Dose-dependent effect” in each case. For the same compound, the Activity entry in the data set with SH-SY5Y [14] is “Dose-dependent effect”. Also, the inhibition entry in the data set on HepG2 [15] is “Dose-dependent effect”.

On to `C=C(C)[C@@H]1CCC(C)=C[C@H]1c1c(O)cc(CCC)cc1O` [CANNABIDIVARIN], for which the negative logarithm of the IC50 (pIC50) in the data set on HCT-116 [1] was 4.89; with OVCAR [2] it was 4.24; with A549 [3], 4.41; in the data set with MCF7 [4], 4.28; with PC-3 [5], 4.36; in the data set on HepG2 [6], 4.19. The negative-log IC50 (pIC50) with SH-SY5Y [7] was 4.26. Besides, the Activity entry in the data set with HCT-116 [8], in the data set on OVCAR [9], with A549 [10], in the data set on MCF7 [11], in the data set on PC-3 [12] and with HepG2 [13] was “Dose-dependent effect” throughout. The Activity entry in the data set with SH-SY5Y [14] is given as “Dose-dependent effect”. For the same compound, the inhibition result in the data set with HepG2 [15] is “Dose-dependent effect”.

On to `CCCCCc1cc(O)c2c(c1)OC(C)(C)c1ccc(C)cc1-2` [CANNABINOL], for which the pIC50 was 4.10 in the data set on HCT-116 [1]; 4.11 with OVCAR [2]; 4.04 in the data set with A549 [3]; 4.09 with MCF7 [4]; 4.11 with PC-3 [5]; 4.13 in the data set with HepG2 [6]. Besides, in the data set with SH-SY5Y [7], the negative-log IC50 (pIC50) is 4.01. The Activity entry in the data set with HCT-116 [8], in the data set on OVCAR [9], in the data set on A549 [10], with MCF7 [11], with PC-3 [12] and in the data set with HepG2 [13] was “Dose-dependent effect” in each case. In addition, the Activity entry in the data set with SH-SY5Y [14] is given as “Dose-dependent effect”. Moreover, in the data set with HepG2 [17], the inhibition result is “inactive”.

As to `CCCCCc1cc(O)c2c(c1)OC(C)(C)[C@@H]1CCC(C)=C[C@@H]21` [DRONABINOL], the negative logarithm of the IC50 (pIC50) was 4.38 in the data set on HCT-116 [1]; 4.20 with OVCAR [2]; 4.35 with A549 [3]; 4.24 in the data set on MCF7 [4]; 4.19 in the data set on PC-3 [5]; 4.23 with HepG2 [6]. Also, in the data set with SH-SY5Y [7], the negative-log IC50 (pIC50) is 4.30. Besides, the Activity entry in the data set on HCT-116 [8], in the data set on OVCAR [9], with A549 [10], in the data set with MCF7 [11], with PC-3 [12] and with HepG2 [13] was “Dose-dependent effect” throughout. Further, in the data set on SH-SY5Y [14], the Activity entry is on record as “Dose-dependent effect”. For the same compound, the inhibition entry in the data set with HepG2 [16] was “inactive”.

For `CC[C@@H](C(=O)[C@@H](C)[C@@H](O)[C@H](C)[C@@H]1O[C@@H]([C@@H](CC)C(=O)O)CC[C@@H]1C)[C@H]1O[C@]2(C=C[C@@H](O)[C@]3(CC[C@@](C)([C@H]4CC[C@](O)(CC)[C@H](C)O4)O3)O2)[C@H](C)C[C@@H]1C` [SALINOMYCIN], in the data set with HepG2 [6], the pIC50 is 4.61. Further, the inhibition result with HepG2 [15] was “Dose-dependent effect”.

As for `CCCc1cc(O)c2c(c1)OC(C)(C)[C@@H]1CCC(C)=C[C@@H]21` [TETRAHYDROCANNABIVARIN], the pIC50 in the data set with HCT-116 [1] was 4.08; with OVCAR [2] it was 4.12; in the data set with A549 [3] it was 4.05; in the data set with MCF7 [4], 4.10; with PC-3 [5], 4.10; in the data set on HepG2 [6], 4.12. For the same compound, in the data set with SH-SY5Y [7], the negative-log IC50 (pIC50) was 4.02. Moreover, the Activity result in the data set on HCT-116 [8], in the data set with OVCAR [9], in the data set on A549 [10], in the data set on MCF7 [11], with PC-3 [12] and in the data set on HepG2 [13] was “Dose-dependent effect” throughout. The Activity entry in the data set with SH-SY5Y [14] is on record as “Dose-dependent effect”. Besides, the inhibition entry in the data set on HepG2 [16] is “inactive”.
